This note sets out measurements from PubChem BioAssay AID318 (DTP/NCI, 2004).

The test system of this assay is BDF1 mice, P815 leukemia ip, survival T/C. Description: NCI In Vivo Anticancer Drug Screen. Data for tumor model P815 Mast Cell Leukemia (Ascitic) (intraperitoneal) in B6D2F1 (BDF1) mice. The settings on record: higher = longer survival. The protocol:
The antitumor activity of compounds was measured in mice bearing transplantable tumors. Survival or tumor size were measured and the results are expressed as the measurement made in the treated group (T) divided by the measurement made in the vehicle treated control group (C). The tumor model used in this assay is P815 Mast Cell Leukemia (Ascitic) (intraperitoneal) in B6D2F1 (BDF1) mice

Setting [1] is: endpoint: survival time, mean or median, dose: 8.0 mg/kg/injection, schedule: Q01DX010 (ip), vehicle: saline.
[2] abbreviates: endpoint: survival time, mean or median, dose: 18.0 mg/kg/injection, schedule: Q01DX010 (ip), vehicle: saline.
[3] abbreviates: endpoint: survival time, mean or median, dose: 27.0 mg/kg/injection, schedule: Q01DX010 (ip), vehicle: saline.
Setting [4] is: endpoint: survival time, mean or median, dose: 31.3 mg/kg/injection, schedule: Q01DX010 (ip), vehicle: saline.
[5] abbreviates: endpoint: survival time, mean or median, dose: 62.5 mg/kg/injection, schedule: Q01DX010 (ip), vehicle: saline.
[6] abbreviates: endpoint: survival time, mean or median, dose: 125.0 mg/kg/injection, schedule: Q01DX010 (ip), vehicle: saline.
Setting [7] is: endpoint: survival time, mean or median, dose: 250.0 mg/kg/injection, schedule: Q01DX010 (ip), vehicle: saline.

“And” between values parts separate entries of the source, which are not always exact repeats. Equal values may be shown once. Inconclusive results and toxic doses are left out. Starred links: 1 amine or outer side, 2 acyl side, 3 side chain; linkers in the order of their positions; H or OH if unused. Positions of bridges follow the written chain, without caps; N, C: chain ends. Non-standard residues stand in square brackets, D forms with d. Residues, ends and D or L forms follow the SMILES beside them. Chains are numbered I, II in the order given. Actinocin(1to9) = Cc1c2oc3c(C)ccc(C(=O)[*:2])c3nc-2c(C(=O)[*:1])c(N)c1=O; Actinocin(9to1) = Cc1c2oc3c(C)ccc(C(=O)[*:1])c3nc-2c(C(=O)[*:2])c(N)c1=O; aThr = C[C@H](O)[C@H](N)C(=O)O; NMeV = CN[CH](C(=O)O)C(C)C; Aze = O=C(O)[CH]1CCN1; Sar = CNCC(=O)O

As for `CC(=O)OCC1OC(n2cnc3c(=S)nc[nH]c32)C(OC(C)=O)C1OC(C)=O` (stereo not given), the T/C is 162 % of control (endpoint: survival time, mean or median, dose: 50.0 mg/kg/injection, schedule: Q01DX015 (ip), vehicle: carboxymethylcellulose (CMC)) and 100 % of control (endpoint: survival time, mean or median, dose: 100.0 mg/kg/injection, schedule: Q01DX015 (ip), vehicle: carboxymethylcellulose (CMC)).
As to `Nc1nc(F)nc2c1ncn2C1OC(CO)C(O)C1O` (stereo not given), the T/C is 100 % of control (endpoint: survival time, mean or median, dose: 0.5 mg/kg/injection, schedule: Q01DX010 (ip), vehicle: saline); 99 % of control (endpoint: survival time, mean or median, dose: 0.75 mg/kg/injection, schedule: Q01DX015 (ip), vehicle: saline); 100 % of control and 112 % of control (endpoint: survival time, mean or median, dose: 1.0 mg/kg/injection, schedule: Q01DX010 (ip), vehicle: saline); 98 % of control (endpoint: survival time, mean or median, dose: 1.5 mg/kg/injection, schedule: Q01DX015 (ip), vehicle: saline); 100 % of control and 112 % of control (endpoint: survival time, mean or median, dose: 2.0 mg/kg/injection, schedule: Q01DX010 (ip), vehicle: saline); 100 % of control and 112 % of control (endpoint: survival time, mean or median, dose: 4.0 mg/kg/injection, schedule: Q01DX010 (ip), vehicle: saline). Also, the T/C under setting [1] is 88 % of control.
Regarding `O=C(Nc1ccc(C2=NCCN2)cc1)c1ccc(NC(=O)c2ccc(C3=NCCN3)cc2)cc1`, the T/C is 112 % of control under setting [2] and 116 % of control under setting [3].
For `Cc1c2oc3c(C)ccc(C(=O)N[C@@H]4C(=O)N[C@H](C(C)C)C(=O)N5CCC[C@H]5C(=O)N(C)CC(=O)N(C)[C@@H](C(C)C)C(=O)O[C@H]4C)c3nc-2c(C(=O)N[C@@H]2C(=O)N[C@H](C(C)C)C(=O)N3CCC[C@H]3C(=O)N(C)CC(=O)N(C)[C@@H](C(C)C)C(=O)O[C@H]2C)c(N)c1=O` (I: [aThr][dV]P[Sar][NMeV] / II: [aThr][dV]P[Sar][NMeV]; ester I:1-I:C, II:1-II:C; linker I:N-II:N via Actinocin(9to1)), the T/C is, setting by setting: (endpoint: median survival time, dose: 180.0 micrograms/kg/injection, schedule: Q04DX003 (ip), vehicle: saline + alcohol) 122 % of control; (endpoint: median survival time, dose: 300.0 micrograms/kg/injection, schedule: Q04DX003 (ip), vehicle: saline + alcohol) 105 % of control; (endpoint: median survival time, dose: 500.0 micrograms/kg/injection, schedule: Q04DX003 (ip), vehicle: saline + alcohol) 90 % of control.
`O=C(Nc1cccc(C(=O)Nc2ccc(C3=NCCN3)cc2)c1)c1ccc(C2=NCCN2)cc1`: the T/C (endpoint: survival time, mean or median, dose: 54.0 mg/kg/injection, schedule: Q01DX010 (ip), vehicle: saline) was 112 % of control.
As for `O=C(Nc1ccc(C2=NCCN2)cc1)c1cccc(C(=O)Nc2ccc(C3=NCCN3)cc2)c1`, the T/C is 118 % of control under setting [1]; 200 % of control and 160 % of control (endpoint: survival time, mean or median, dose: 32.0 mg/kg/injection, schedule: Q01DX010 (ip), vehicle: saline); 181 % of control and 233 % of control (endpoint: survival time, mean or median, dose: 64.0 mg/kg/injection, schedule: Q01DX010 (ip), vehicle: saline).
On to `NOCc1cscn1`, for which the T/C was 87 % of control (endpoint: median survival time, dose: 25.0 mg/kg/injection, schedule: Q01DX010 (ip), vehicle: saline sonified) and 100 % of control (endpoint: median survival time, dose: 50.0 mg/kg/injection, schedule: Q01DX010 (ip), vehicle: saline sonified).
`Cc1c2oc3c(C)ccc(C(=O)NC4C(=O)NC(C(C)C)C(=O)N5CCCC5C(=O)N(C)CC(=O)N(C)C(C(C)C)C(=O)OC4C)c3nc-2c(C(=O)NC2C(=O)NC(C(C)C)C(=O)N3CCC3C(=O)N(C)CC(=O)N(C)C(C(C)C)C(=O)OC2C)c(N)c1=O` (stereo not given) (I: TV[Aze][Sar][NMeV] / II: TVP[Sar][NMeV]; ester I:1-I:C, II:1-II:C; linker I:N-II:N via Actinocin(1to9); configuration not given here): the T/C reads like this: (endpoint: median survival time, dose: 450.0 micrograms/kg/injection, schedule: Q01DX001 (ip), vehicle: saline + alcohol) 116 % of control; (endpoint: median survival time, dose: 750.0 micrograms/kg/injection, schedule: Q01DX001 (ip), vehicle: saline + alcohol) 118 % of control; (endpoint: median survival time, dose: 750.0 micrograms/kg/injection, schedule: Q04DX003 (ip), vehicle: saline + alcohol) 96 % of control; (endpoint: median survival time, dose: 1250.0 micrograms/kg/injection, schedule: Q04DX003 (ip), vehicle: saline + alcohol) 93 % of control; (endpoint: median survival time, dose: 2080.0 micrograms/kg/injection, schedule: Q01DX001 (ip), vehicle: saline + alcohol) 86 % of control.
Turning to `O=C(O)CCCc1ccc(N(CCCl)CCCl)cc1`, the T/C is 100 % of control (endpoint: survival time, mean or median, dose: 3.13 mg/kg/injection, schedule: Q01DX010 (ip), vehicle: saline); 105 % of control (endpoint: survival time, mean or median, dose: 6.25 mg/kg/injection, schedule: Q01DX010 (ip), vehicle: saline); 122 % of control (endpoint: survival time, mean or median, dose: 12.5 mg/kg/injection, schedule: Q01DX010 (ip), vehicle: saline).
Turning to `CN=C(NC)c1ccc(NC(=O)Nc2ccc(NC(=O)Nc3ccc(C(=NC)NC)cc3)cc2)cc1`, the T/C (endpoint: survival time, mean or median, dose: 13.3 mg/kg/injection, schedule: Q01DX010 (ip), vehicle: saline) was 108 % of control and the T/C (endpoint: survival time, mean or median, dose: 20.0 mg/kg/injection, schedule: Q01DX010 (ip), vehicle: saline) is 112 % of control.
As to `CC(=O)Nc1ccc(/C=N/Nc2ccc([N+](=O)[O-])cn2)cc1`, the T/C by setting is: under setting [4], 100 % of control; under setting [5], 100 % of control; under setting [6], 100 % of control; under setting [7], 88 % of control.
Regarding `CCn1cnc2c(=S)nc[nH]c21`, the T/C was 94 % of control (endpoint: survival time, mean or median, dose: 15.6 mg/kg/injection, schedule: Q01DX010 (ip), vehicle: saline); 98 % of control and 102 % of control under setting [4]; 97 % of control under setting [5].
As for `Nc1ccc(OC(=O)Oc2ccc(N)cc2)cc1`, the T/C is, setting by setting: (endpoint: survival time, mean or median, dose: 25.0 mg/kg/injection, schedule: Q01DX015 (ip), vehicle: saline) 97 % of control; (endpoint: survival time, mean or median, dose: 50.0 mg/kg/injection, schedule: Q01DX015 (ip), vehicle: saline) 102 % of control; (endpoint: survival time, mean or median, dose: 100.0 mg/kg/injection, schedule: Q01DX015 (ip), vehicle: saline) 108 % of control; (endpoint: survival time, mean or median, dose: 200.0 mg/kg/injection, schedule: Q01DX015 (ip), vehicle: saline) 104 % of control.
As to `O=c1cnn(C2OC(CO)C(O)C2O)c(=O)[nH]1` (stereo not given), the T/C runs as follows: (endpoint: survival time, mean or median, dose: 800.0 mg/kg/injection, schedule: Q01DX010 (ip), vehicle: saline) 111 % of control; (endpoint: survival time, mean or median, dose: 1600.0 mg/kg/injection, schedule: Q01DX010 (ip), vehicle: saline) 100 % of control.
`CC(=O)OCC1OC(n2cnc3c(=S)nc(N)[nH]c32)C(OC(C)=O)C1OC(C)=O` (stereo not given): the T/C is 113 % of control (endpoint: survival time, mean or median, dose: 1.5 mg/kg/injection, schedule: Q01DX015 (ip), vehicle: other); 110 % of control (endpoint: survival time, mean or median, dose: 3.1 mg/kg/injection, schedule: Q01DX015 (ip), vehicle: other); 108 % of control (endpoint: survival time, mean or median, dose: 6.2 mg/kg/injection, schedule: Q01DX015 (ip), vehicle: other); 88 % of control (endpoint: survival time, mean or median, dose: 12.5 mg/kg/injection, schedule: Q01DX015 (ip), vehicle: other).
With `O=c1cn[nH]c(=O)[nH]1`, the T/C by setting is: under setting [5], 91 % of control and 95 % of control; under setting [6], 91 % of control and 100 % of control; under setting [7], 95 % of control; (endpoint: survival time, mean or median, dose: 500.0 mg/kg/injection, schedule: Q01DX010 (ip), vehicle: saline) 100 % of control and 104 % of control.
As for `C[C@H](N)C(=O)N[C@@H]1[C@H]2C(=C(O)C[C@@H](O)[C@@H]2O)C(=O)O[C@@H]1C`, the T/C reads like this: (endpoint: survival time, mean or median, dose: 150.0 mg/kg/injection, schedule: Q01DX010 (ip), vehicle: saline) 122 % of control; (endpoint: survival time, mean or median, dose: 1200.0 mg/kg/injection, schedule: Q01DX010 (ip), vehicle: saline) 183 % of control.
`CN=C(NC)c1ccc(NC(=O)c2ccc(C(=O)Nc3ccc(C(=NC)NC)cc3)c(Cl)c2)cc1`: the T/C is 91 % of control under setting [2] and 100 % of control under setting [3].
